Several values for one entry are separate records, joined by “and”; a condition that tells them apart may be missing. Equal entries are not always repeated.
Target: T1, CD33^C36S (Homo sapiens, UniProt P20138, C36S)
T1 construct: DNA encoding D18 to H143 of human CD33; octa-histidine tag with TEV protease cleavage site (N); made in house
Assay: surface plasmon resonance (SPR), CD33^C36S V-set domain
Assay type: binding
Details: P22 as analyte, captured CD33^C36S; 1:1 steady state model
Protocol: We next performed surface plasmon resonance (SPR) measurements on P22 binding to CD33 wild-type, and selected mutants, to obtain detailed kinetic data (see Transparent Methods). The CD33 V-set domain has a free cysteine residue (C36), which caused anomalous results in some of our SPR experiments due to disulfide-linked oligomers forming in solution.
Figure 3 P22 Binding to CD33 Wild-Type and Mutants (A) An example of affinity analysis for 1–243 μM (3-fold dilutions) of P22 binding to immobilized CD33^C36S. Data obtained in duplicate using single-cycle analysis and fit to a steady-state binding model to determine the equilibrium binding constant. (B) An example of affinity analysis of P22 binding to immobilized CD33 wild-type (WT) as per example in (A). (C) Sensorgram data for 0.01–9 μM (3-fold dilutions) of CD33^C36S binding to immobilized P22. Data obtained in triplicate using single concentration cycles and fit to a 1:1 binding model for kinetic analysis. (D) Sensorgram data for 0.03–9 μM (3-fold dilutions) CD33 WT binding to immobilized P22. Data obtained in triplicate using single concentration cycles and fit to a bivalent analyte model for kinetic analysis. Measurements in triplicate showing mean ± SD. […] Data presented are representative of three independent experiments performed in quadruplicate for each compound. […]

T1 sequence (P20138 18-143 C36S): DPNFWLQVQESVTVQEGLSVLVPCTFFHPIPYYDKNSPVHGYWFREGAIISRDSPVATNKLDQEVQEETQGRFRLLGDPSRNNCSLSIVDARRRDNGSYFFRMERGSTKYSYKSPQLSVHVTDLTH

Kd: 95 µM and 95.2 µM
Structure (SMILES): Cc1cc(C(=O)NC[C@@H](O)[C@@H](O)[C@@H]2O[C@@](OC[C@H]3O[C@@H](O[C@H]4[C@H](O)[C@@H](O)[C@H](OCCN)O[C@@H]4CO)[C@H](O)[C@@H](O)[C@H]3O)(C(=O)O)C[C@H](O)[C@H]2NC(=O)Cn2cc(C3CCCCC3)nn2)cc(C)c1O [P22, β-D-Glucopyranoside, 2-aminoethyl O-[N-[2-(4-cyclohexyl-1H-1,2,3-triazol-1-yl)acetyl]-9-deoxy-9-[(4-hydroxy-3,5-dimethylbenzoyl)amino]-α-neuraminosyl] (2→6)-O-β-D-galactopyranosyl-(1→4)-]

Reference: PMC6669322, “Small Molecule Binding to Alzheimer Risk Factor CD33 Promotes Aβ Phagocytosis” (iScience, 2019)
